According to the NIST ThermoML archive (doi:10.1021/acs.jced.5b00451):

Assay: mn = molality of the nth substance listed, in mol/kg
Settings: 101.33 kPa, Liquid, Vibrating tube method

CCCCCC[N+](C)(C)C.[Br-] [hexyltrimethylammonium bromide] + O
mass density [kg/m3]
Settings | 293.15 K | 298.15 K | 303.15 K
m1 = 0.04932 | 999.719 | 998.528 | 997.065
m1 = 0.07746 | 1000.55 | 999.34 | 997.873
m1 = 0.08812 | 1000.88 | 999.654 | 998.174
m1 = 0.1186 | 1001.76 | 1000.52 | 999.049
m1 = 0.1774 | 1003.49 | 1002.19 | 1000.78
m1 = 0.1855 | 1003.72 | 1002.41 | 1000.97
m1 = 0.2757 | 1006.26 | 1004.93 | 1003.53
m1 = 0.3712 | 1008.99 | 1007.66 | 1006.15
m1 = 0.4703 | 1011.8 | 1010.34 | 1008.8
m1 = 0.5274 | 1013.14 | 1011.76 | 1010.3
m1 = 0.5803 | 1014.75 | 1013.13 | 1011.67
m1 = 0.636 | 1016.19 | 1014.59 | 1013.12

CCCCCCCCCCCC[N+](C)(C)C.[Br-] [dodecyltrimethylammonium bromide] + O
mass density [kg/m3]
Settings | 293.15 K | 298.15 K | 303.15 K
m1 = 0.00799 | 998.38 | 997.201 | 995.799
m1 = 0.00998 | 998.422 | 997.244 | 995.839
m1 = 0.01168 | 998.455 | 997.278 | 995.868
m1 = 0.01448 | 998.514 | 997.332 | 995.921
m1 = 0.01695 | 998.566 | 997.376 | 995.96
m1 = 0.01883 | 998.601 | 997.406 | 995.987
m1 = 0.02825 | 998.739 | 997.528 | 996.106
m1 = 0.04703 | 998.998 | 997.783 | 996.34
m1 = 0.09497 | 999.663 | 998.401 | 996.928
m1 = 0.1963 | 1001.05 | 999.701 | 998.119
m1 = 0.301 | 1002.39 | 1000.96 | 999.316

CCCCCCCCCCCCCCCC[N+](C)(C)C.[Br-] [N,N,N-trimethyl-1-hexadecanaminium bromide] + O
mass density [kg/m3]
Settings | 293.15 K | 298.15 K | 303.15 K
m1 = 0.00082 | 998.23 | 997.052 | 995.673
m1 = 0.00093 | 998.234 | 997.055 | 995.669
m1 = 0.00104 | 998.238 | 997.058 | 995.669
m1 = 0.00205 | 998.239 | 997.06 | 995.666
m1 = 0.00309 | 998.245 | 997.062 | 995.67
m1 = 0.00411 | 998.243 | 997.065 | 995.678
m1 = 0.00625 | 998.254 | 997.073 | 995.681
m1 = 0.00726 | 998.258 | 997.076 | 995.678
m1 = 0.00801 | 998.255 | 997.076 | 995.687
m1 = 0.00931 | 998.264 | 997.078 | 995.679
m1 = 0.01038 | 998.274 | 997.082 | 995.679
m1 = 0.01139 | 998.276 | 997.089 | 995.693
m1 = 0.01252 | 998.279 | 997.093 | 995.676
m1 = 0.01454 | 998.293 | 997.098 | 995.699
m1 = 0.01561 | 998.296 | 997.105 | 995.676

CCCCCCCC[N+](C)(C)C.[Br-] [octyl trimethyl ammonium bromide] + O
mass density [kg/m3]
Settings | m1 = 0.04535 | m1 = 0.09122 | m1 = 0.1223 | m1 = 0.1444 | m1 = 0.1759 | m1 = 0.1958 | m1 = 0.2338 | m1 = 0.2621 | m1 = 0.2773 | m1 = 0.3003
293.15 K | 999.46 | 1000.72 | 1001.54 | 1002.14 | 1002.97 | 1003.52 | 1004.58 | 1005.29 | 1005.65 | 1006.33
298.15 K | 998.261 | 999.486 | 1000.3 | 1000.84 | 1001.75 | 1002.13 | 1003.15 | 1003.84 | 1004.24 | 1004.76
303.15 K | 996.848 | 998.045 | 998.815 | 999.391 | 1000.2 | 1000.69 | 1001.63 | 1002.32 | 1002.69 | 1003.25

CCCCCCCCCCCCCC[N+](C)(C)C.[Br-] [tetradecyltrimethylammonium bromide] + O
mass density [kg/m3]
Settings | 293.15 K | 298.15 K | 303.15 K
m1 = 0.00291 | 998.259 | 997.091 | 995.687
m1 = 0.00325 | 998.265 | 997.097 | 995.692
m1 = 0.00379 | 998.273 | 997.103 | 995.706
m1 = 0.00393 | 998.275 | 997.105 | 995.704
m1 = 0.0049 | 998.286 | 997.115 | 995.708
m1 = 0.0065 | 998.302 | 997.127 | 995.727
m1 = 0.00821 | 998.32 | 997.144 | 995.739
m1 = 0.01087 | 998.344 | 997.164 | 995.749
m1 = 0.04969 | 998.72 | 997.499 | 996.055
m1 = 0.09742 | 999.176 | 997.906 | 996.41
m1 = 0.1468 | 999.632 | 998.322 | 996.79
m1 = 0.1955 | 1000.08 | 998.719 | 997.144
m1 = 0.3023 | 1001 | 999.537 | 997.713

CCCCCCCCCC[N+](C)(C)C.[Br-] [N,N,N-trimethyl-1-decanaminium bromide] + O
mass density [kg/m3]
Settings | m1 = 0.01879 | m1 = 0.02836 | m1 = 0.04784 | m1 = 0.05741 | m1 = 0.06268 | m1 = 0.0767 | m1 = 0.08783 | m1 = 0.09727 | m1 = 0.1206 | m1 = 0.1383
293.15 K | 998.685 | 998.921 | 999.399 | 999.635 | 999.765 | 1000.05 | 1000.28 | 1000.47 | 1000.86 | 1001.23
298.15 K | 997.496 | 997.716 | 998.157 | 998.379 | 998.511 | 998.788 | 998.987 | 999.17 | 999.597 | 999.91
303.15 K | 996.082 | 996.312 | 996.748 | 996.949 | 997.055 | 997.334 | 997.534 | 997.707 | 998.105 | 998.375
